In paper PMC11184559, “Identification and Validation of Compounds Targeting Leishmania major Leucyl-Aminopeptidase M17” (ACS Infectious Diseases, 2024):

Legend:
[1] = test system: LmjF.33.2570 (metallo-peptidase, Clan MF, Family M17); assay: Isothermal TPP (iTPP) thermal stabilization, LmjF.33.2570; assay type: binding, Leishmania major; details: L. major promastigote lysate, 47 °C, compound at 10× EC50 vs DMSO
Experimental: (§1) Cell lysates were obtained as detailed above. Isothermal TPP assays were performed as previously described[29] but here lysates were incubated at two temperatures: 28 and 47 °C. The first temperature (28 °C) acts as a control temperature at which the protein levels are not altered by the presence of the test compound. The second temperature (47 °C) is the Leishmania spp. median Tm (melting temperature or temperature 50%) according to our interim data. […] These samples were aliquoted and submitted to a temperature shock at the designated temperature for 3 min, then 3 min at room temperature, and finally 3 min on ice. The soluble part was isolated by ultracentrifugation (100,000g, 20 min, 4 °C).
(§2) All aspects of sample processing, TMT-labeling, fractionation by HPLC into 10 fractions, LC-MS/MS, and protein identification and quantitation were described previously.[28],[68] Proteins with less than three peptides and those with increased stability at 28 °C were disregarded.
(§3) Proteins were identified by searching the MS and MS/MS data for the peptides against L. major strain Friedlin (TriTryp version 61, tritrypdb.org) using MaxQuant (http://maxquant.org/, version 2.1.4.0). All proteomics data sets have been deposited to the ProteomeXchange Consortium via the PRIDE[69] partner repository with the identifier PXD00000. Data were analyzed with Perseus v 1.6.15.[70] The reporter intensities of each protein were extracted and normalized to the control temperature reporter intensity (28 °C), then these normalized values were used to calculate the log2 transformed fold-changes (FC) of […] samples. Proteins stabilized (log2 FC > 1 in both replicates) were selected as putative hits.

[2] = test system: L. donovani intracellular amastigotes; assay: Leishmania donovani intracellular (intramacrophage) assay, single concentration; assay type: cell-based; details: 96 h, intracellular amastigotes in macrophages, Hoechst imaging; for Inhibition of L. donovani proliferation (%): 50 μM; for inhibition at 50 µM: Leishmania donovani, Macrophage, read-out: Inhibition of L. donovani proliferation (%)
Experimental: The effect of the compounds selected as inhibitors of rLmLAP on the proliferation of L. donovani amastigotes was evaluated at a concentration of 50 μM. Macrophage cultures (ECACC, catalog number: 88081201) were used as host cells. Parasites were incubated with 4.27× 10^7 macrophages, at a multiplicity of infection (MOI) of 5, at 37 °C with 5% CO2, overnight in DMEM medium supplemented with 4.5 g/L glucose and glutamine and 10% FBS, in a Millicell HY T-600 three-layer culture flask (Merck Millipore, Solna, Sweden). […] Macrophages were incubated for another 24 h in the above conditions with 133 μL of fresh DMEM medium prewarmed at 37 °C and supplemented with 10% FBS to obtain a high count of intracellular amastigotes.
Forty-two hours after macrophage infection, compounds (50 μM, 250 nL in DMSO) were dispensed using LabCyte ECHO into each well of 384-well dark flat bottom plates (Corning, New York, USA). The plates were incubated at 37 °C, 5% CO2, for 4 h (without compounds, with DMSO, to determine the initial level of infection) and for 96 h (with and without compounds).

[3] = test system: LmLAP-overexpressing L. major promastigotes; assay type: cell-based, Leishmania major; details: compound at EC50, 72 h, n = 70 cells per condition
Experimental: L. major promastigotes (WT and LmLAP OE) were grown in supplemented HOMEM media as described above, in T25 flasks. […] L. major WT cells were grown at control conditions. Briefly, cells were fixed directly in culture media with 3% (v/v) paraformaldehyde for 15 min at room temperature, washed three times with excess D-PBS, permeabilized with 0.2% Triton X-100 (v/v) in PBS for 5 min, and washed three times in excess PBS. Slides were mounted with mounting medium with DAPI (Vectashield Lab H-1000–10). Microscopy was carried out on a Zeiss microscope and images captured using software Zen Blue (Zeiss). Analysis of images and figure preparation were made in Omero.[71]

[4] = test system: LmjF.35.1670 (60S ribosomal protein L26, putative); assay: Isothermal TPP (iTPP) thermal stabilization, LmjF.35.1670; assay type: binding, Leishmania major; details: L. major promastigote lysate, 47 °C, compound at 10× EC50 vs DMSO
Experimental: as §1, §2, §3

[5] = test system: RAW 264.7 murine macrophages; details: 100 μM, 48 h, MTT
From the text: Blank contains only culture medium. […] Each assay was developed in triplicate.

rLmLAP = rLmLAP (Leishmania major, UniProt Q7KF27); assay: Mode of inhibition studies for rLmLAP (Leu-pNA, Lineweaver-Burk); assay type: biochemical; details: for Modality of rLmLAP inhibition: Lineweaver-Burk, 0, 15, 30, 60 μM inhibitor, L-Leu-pNA 0.59-300 μM
rLmLAP, sequence (Q7KF27 entry or part of it): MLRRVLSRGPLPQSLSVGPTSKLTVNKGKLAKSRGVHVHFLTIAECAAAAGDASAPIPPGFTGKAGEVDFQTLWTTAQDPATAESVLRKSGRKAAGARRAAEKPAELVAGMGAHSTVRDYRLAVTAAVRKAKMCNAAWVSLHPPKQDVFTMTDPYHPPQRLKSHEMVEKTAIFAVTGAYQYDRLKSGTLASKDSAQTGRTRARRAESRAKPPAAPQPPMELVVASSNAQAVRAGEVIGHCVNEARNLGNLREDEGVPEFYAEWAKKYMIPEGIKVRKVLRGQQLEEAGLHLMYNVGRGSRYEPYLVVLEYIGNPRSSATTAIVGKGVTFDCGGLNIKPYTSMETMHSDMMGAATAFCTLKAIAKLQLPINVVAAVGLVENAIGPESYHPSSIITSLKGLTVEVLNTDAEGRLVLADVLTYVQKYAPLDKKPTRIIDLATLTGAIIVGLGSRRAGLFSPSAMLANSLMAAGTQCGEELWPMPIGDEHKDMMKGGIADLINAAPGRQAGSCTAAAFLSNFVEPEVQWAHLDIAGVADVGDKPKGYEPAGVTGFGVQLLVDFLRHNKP
Experimental: The aminopeptidase enzymatic activity was determined by a continuous kinetic method.[26] The reaction was performed in 50 mM sodium phosphate, pH 7.0, in the presence of 13.9 nM rLmLAP (which is within the linear range of the v0 vs. enzyme concentration relationship) and 30 μM (1 appKM; 23) of the chromogenic substrate L-Leu-p-nitroanilide (Leu-pNA; 2 μL, in DMSO). The reaction was carried out at 25 °C in 96-well microplates (200 μL final volume), in a microplate spectrophotometer (FLUOstar OPTIMA, Germany). The increase of the absorbance at 405 nm (due to the release of the pNA chromogen) was recorded every 15 s for 5 min. Only the linear ranges of the typical curves, corresponding to substrate consumptions lower than 5% (v0 conditions) were used to measure the reaction velocity. Slopes with determination coefficients (R^2) < 0.98 were not considered for linear fits.
For the determination of the inhibition mode, inhibitors were used at 0, 15, 30, and 60 μM. For each inhibitor concentration, the substrate Leu-pNA was added at different concentrations (0.59–300 μM). Experimental data were transformed, and the Lineweaver–Burk double reciprocal plots were constructed. The following equation was used: [drawing 3] 3 where appvmax is the apparent maximal rate of the reaction, and [S]0 is the initial substrate concentration.[26] The inhibition type was determined graphically from the lines of the double reciprocal plots.[26]

rHsLAP = target: T1, rHsLAP (Homo sapiens, UniProt P28838); assay: RapidFire-MS selectivity study against human LAP; assay type: biochemical; details: for IC50: 150 nM rHsLAP, 600 μM LSTVIVR, 1 mM ZnCl2, 180 min
T1 construct: purchased Assay Genie, Ireland
T1 sequence (P28838 whole entry): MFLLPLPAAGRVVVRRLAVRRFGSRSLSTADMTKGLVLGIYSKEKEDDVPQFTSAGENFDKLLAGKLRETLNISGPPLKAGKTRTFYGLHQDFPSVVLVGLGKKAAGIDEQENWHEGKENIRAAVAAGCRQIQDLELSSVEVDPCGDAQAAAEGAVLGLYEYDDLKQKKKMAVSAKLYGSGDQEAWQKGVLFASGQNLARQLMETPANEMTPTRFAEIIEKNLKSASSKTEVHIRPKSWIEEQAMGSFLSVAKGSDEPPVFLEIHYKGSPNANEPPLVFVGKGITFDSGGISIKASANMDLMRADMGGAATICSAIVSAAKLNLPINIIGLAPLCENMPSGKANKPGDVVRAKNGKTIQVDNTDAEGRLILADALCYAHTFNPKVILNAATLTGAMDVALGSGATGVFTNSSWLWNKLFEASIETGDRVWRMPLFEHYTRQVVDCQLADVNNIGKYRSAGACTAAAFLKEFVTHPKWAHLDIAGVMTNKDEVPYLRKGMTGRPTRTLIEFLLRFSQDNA
Experimental: The reaction mixture included 600 μM (1× appKM) LSTVIVR substrate peptide, 1 mM ZnCl2, and the reaction time was 180 min. The inhibitors were tested at concentrations ranging from 0.78 to 100 μM to determine inhibitory activity.

[6] = test system: LmjF.23.0040 (peroxidoxin); assay: Isothermal TPP (iTPP) thermal stabilization, LmjF.23.0040; assay type: binding, Leishmania major; details: L. major promastigote lysate, 47 °C, compound at 10× EC50 vs DMSO
Experimental: as §1, §2
Proteins were identified by searching the MS and MS/MS data for the peptides against L. major strain Friedlin (TriTryp version 61, tritrypdb.org) using MaxQuant (http://maxquant.org/, version 2.1.4.0). All proteomics data sets have been deposited to the ProteomeXchange Consortium via the PRIDE[69] partner repository with the identifier PXD00000. Data were analyzed with Perseus v 1.6.15.[70] […]

Structure (SMILES)	Enrichment (log2) replica A, LmjF.33.2570 [1] [log2]	Enrichment (log2) replica B, LmjF.33.2570 [1] [log2]	Inhibition of L. donovani proliferation (%) [2] [%]	inhibition at 50 µM [2] [%]	Frequency of elongated 1K1N1F forms in LmLAP-overexpressing cells [3] [%]	Enrichment (log2) replica A, LmjF.35.1670 [4] [log2]	Enrichment (log2) replica B, LmjF.35.1670 [4] [log2]	Maximum inhibitory effect, RAW 264.7 macrophage cell line [5] [%]	Modality of rLmLAP inhibition (rLmLAP)	α (noncompetitive inhibition mechanism) (rLmLAP; α > 1: preferential binding to free enzyme)	inhibition at 100 µM (rHsLAP) [%]	IC50 (rHsLAP) [µM]	Enrichment (log2) replica A, LmjF.23.0040 [6] [log2]	Enrichment (log2) replica B, LmjF.23.0040 [6] [log2]
COc1ccc(Cc2c(N)nc(-c3ccccn3)nc2N)cc1 [DDD00057570]	1.38	1.17	98.4 ± 2.9	98 ± 2.9	~36	1.36	1.64	52	noncompetitive inhibitor	> 1	35	> 100		
O=C(c1cccs1)N(CCCn1ccnc1)c1nc2ccccc2s1 [DDD00097924]	1.97	1.76	77.8 ± 3.1	78	~36	1.71	1.97		competitive mode inhibition		62	98	1.31	1.21
